The text below walks through data of patent US10106536B2, “Imidazo(4,5-B) pyridin-2-yl amides as KV7 channel activators” (Knopp Biosciences LLC, priority 2013, dated 2018).

This assay has as its target T1, Kv7.2/7.3 (Homo sapiens, UniProt O43525+O43526).
T1 construct: host or cells: HEK cells, tetracycline-inducible expression
Kind of assay: Kv7.2/7.3 activation assay, QPatch planar patch-clamp, single concentration screen. It counts as cell-based. The note with it: compound 10 μM; Kv7.2/Kv7.3 co-expressing HEK cells; steady-state current at end of 1 s pulse to −30 mV. As for the experimental part:
Kv7.2/7.3 Activation Assay
The ability of compounds to potentiate K-currents in KV7.2/7.3 containing HEK cells was assessed using planar patch-clamp on the QPatch automated screening platform.
The hKV7.2/7.3 cell line was obtained from Chantest (Cleveland, Ohio 44128) cat.# CT6147. These HEK cells will express the Kv7.2/7.3 ion channels when induced.
Cell Culture: Cells were maintained in a media containing DMEM/F12; 50/50 (GIBCO cat.#11330), 10% Fetal Bovine Serum (FBS) (GIBCO cat.#26140), 100 units/mL Penicillin-Streptomycin (GIBCO cat.#15140), 0.005 mg/mL Blasticidin (INVIVOGEN cat.# ant-bl-1), 0.5 mg/mL Geneticin (GIBCO cat.#10131), 0.1 mg/mL Zeocin (GIBCO cat.# R25001). Cells used in the electrophysiology assay were maintained in a media without Blasticidin, Geneticin and Zeocin for 2 days and channel expression was induced by adding tetracycline (BIOLINE cat.# BIO-87030) at a final concentration of […]. Cells were grown in T-175 flask to ˜75% confluency. Currents were recorded 24 hours after channel induction.
Test compounds were prepared by performing serial dilutions on a Biomek NX^P (BECKMAN COULTER). Final dilutions were made in external recording solution with a final DMSO concentration of 0.1% DMSO. For single concentration screens each plate had 10 μM retigabine as a positive control and 0.1% DMSO as a negative control.
On the day of the experiment cells were washed with Hank's Balanced Salt Solution (HBBS) (GIBCO cat.#14175) and harvested with Tryple (GIBCO cat.#12604). Cells were then centrifuged at 2000 rpm for 5 minutes and resuspended in CHO-S-SFM (GIBCO cat.#12052) at ˜3×10^6 cells/mL. Cells were stirred for 30 minutes before experiments were started. External recording solution contained (in mM): NaCl (145), KCl (4), CaCl2 (2), MgCl2 (1), HEPES (10) and Glucose (10); pH was adjusted to 7.4 with NaOH and the osmolarity was adjusted to 300-305 mOsM with sucrose if necessary. Internal solution contained (in mM): KCl (125), KF (10), EGTA (5), Na2ATP (5), MgCl2 (3.2), HEPES (5); pH was adjusted to 7.2 with KOH and the osmolarity was adjusted to 298-302 mOsM with sucrose.
Potassium channel activity was measured on the QPatch HTX (Sophion Bioscience) using QPlates with 48-wells/plate. Each cell was taken as an independent experiment and only one compound was tested per well. Potassium channel activity was elicited by holding at −80 mV and stepping to −30 mV for 1 s followed by a 100 ms pulse to −120 mV.
Baseline conditions were obtained by recording 5 sweeps in the external solution only, this was repeated for three applications of the external solution. The effect of test compounds on elicited current was then assessed by recording 5 sweeps in the presence of a 3 μM or 10 μM compound solution. The steady-state current at the end of the 1 s pulse to −30 mV was measured to determine the fold increase from baseline.

`O=C(CCOC1CCCC1)Nc1nc2ccc(C(F)(F)F)nc2n1C1CCC1` [Example 91, N-(3-cyclobutyl-5-(trifluoromethyl)-3H-imidazo[4,5-b]pyridin-2-yl)-3-(cyclopentyloxy)propanamide]: the “Kv7.2/7.3 Activity at 10 μM (increase in current over baseline)” value is “+++ (>6-fold increase over baseline (+++))”.
